Data from patent US20260256792A1, “TREATMENT OF CHRONIC SPONTANEOUS URTICARIA BY ADMINISTERING (R)-2-[3-[4-AMINO-3-(2-FLUORO-4-PHENOXY-PHENYL)PYRAZOLO[3,4-D]PYRIMIDIN-1-YL]PIPERIDINE-1-CARBONYL]-4-METHYL-4-[4-(OXETAN-3-YL)PIPERAZIN-1-YL]PENT-2-ENENITRILE” (priority 2023, published 2026).

Test system: moderate-to-severe chronic spontaneous urticaria (CSU)
Experiment: Phase 2 CSU study: urticaria activity score over 7 days (UAS7)
Format: in vivo, human
Parameters: key to UAS7 Median / UAS7 Change from baseline Median / UAS7 change from baseline, Q1 / UAS7 change from baseline, Q3 / UAS7 change from baseline, Max / UAS7 Change from baseline LS Mean (SE): UAS7 points; daily UAS score ranges 0–6 points/day, over 7 days
Description: The study comprises a 12 week, randomized, double-blind, placebo-controlled, multi-center, dose-ranging efficacy and safety phase, followed by a 40 week open label extension (OLE) phase (see FIG. 1). The study consists of three phases and an optional OLE phase. […] Clinically, CSU is characterized by the spontaneous and recurrent appearance of pruritic hives. The proposed primary endpoints were the UAS7 at Week 12 in EU and EU reference countries and the ISS7 in the US. Regardless of where a participant was from, all assessments were the same. The UAS7 score is a composite score containing both the HSS7 and the ISS7. This allowed a global assessment of the two key components of urticaria: hives and itch. […] The UAS is a validated PRO measure. […] The daily UAS scores range from 0 to 6 point/day. […] Patients were to complete the UAS using the e-diary. […] The following secondary endpoints were to be analyzed using the same approach as for the primary endpoint: • Change from baseline in UAS7 at Week 4 • Change from baseline in UAS7 at Week 12 (for US and US reference countries) • Change from baseline in ISS7 at Week 12 (except US and US reference countries) • Change from baseline in HSS7 at Week 12 The following responder secondary endpoints were to be analyzed using the Cochran-Mantel-Haenszel test adjusted by region: • Proportion of participants with UAS7<6 at Week 12 • Proportion of participants with UAS7=0 at Week 12 Participants who received selected prohibited medications and/or rescue medications were to be considered as non-responders for time points after the medication usage. For other participants, all available data including those collected during the off-treatment period were to be used to determine the responder/non-responder status. Missing data were to be considered as non-responders.

[1] = Week 7, 400 mg BID, Prior Omalizumab Use
[2] = Week 7, 400 mg BID, omalizumab-naive participants
[3] = Week 7, 400 mg QPM, ITT population
[4] = Week 7, 400 mg QPM, Omalizumab-Naïve
[5] = Week 7, 400 mg QPM, Prior Omalizumab Use
[6] = Week 7, 400 mg QPM, omalizumab-naive participants
[7] = Week 7, 400 mg TID, ITT population
[8] = Week 7, 400 mg TID, Omalizumab-Naïve
[9] = Week 7, 400 mg TID, Prior Omalizumab Use
[10] = Week 7, 400 mg TID, omalizumab-naive participants
[11] = Week 8, 400 mg BID, ITT population
[12] = Week 8, 400 mg BID, Omalizumab-Naïve
[13] = Week 8, 400 mg BID, Prior Omalizumab Use
[14] = Week 8, 400 mg BID, omalizumab-naive participants

CC(C)(C=C(C#N)C(=O)N1CCC[C@@H](n2nc(-c3ccc(Oc4ccccc4)cc3F)c3c(N)ncnc32)C1)N1CCN(C2COC2)CC1 [rilzabrutinib, (R)-2-[3-[4-amino-3-(2-fluoro-4-phenoxy-phenyl)pyrazolo[3,4-d]pyrimidin-1-yl]piperidine-1-carbonyl]-4-methyl-4-[4-(oxetan-3-yl)piperazin-1-yl]pent-2-enenitrile]
UAS7 Percent change from baseline Median (Week 7, 400 mg BID, Omalizumab-Naïve): −48.28% | UAS7 Change from baseline Mean (SD) [1]: −20.40 (19.58) | UAS7 Change from baseline Median [1]: −25.00 | UAS7 Mean (SD) [1]: 11.60 (15.79) | UAS7 Median [1]: 2.00 | UAS7 Percent change from baseline Mean (SD) [1]: −58.52 (53.51) % | UAS7 Percent change from baseline Median [1]: −92.59% | Non-responder, UAS7 reduction from baseline of 10 points or more [2]: 15 (42.9) n (%) | OR for rilzabrutinib vs. placebo, UAS7 reduction of 10 points or more [2]: 2.154 | RRD (%) for rilzabrutinib vs. placebo, UAS7 reduction of 10 points or more [2]: 18.5 % | Responder, UAS7 reduction from baseline of 10 points or more [2]: 20 (57.1) n (%) | Non-responder, UAS7 reduction from baseline of 10 points or more [3]: 22 (57.9) n (%) | OR for rilzabrutinib vs. placebo, UAS7 reduction of 10 points or more [3]: 1.159 | RRD (%) for rilzabrutinib vs. placebo, UAS7 reduction of 10 points or more [3]: 3.5 % | Responder, UAS7 reduction from baseline of 10 points or more [3]: 16 (42.1) n (%) | UAS7 Change from baseline Mean (SD) [4]: −10.92 (10.06) | UAS7 Change from baseline Median [4]: −9.00 | UAS7 Mean (SD) [4]: 21.11 (10.03) | UAS7 Median [4]: 18.20 | UAS7 Percent change from baseline Mean (SD) [4]: −33.33 (28.49) % | UAS7 Percent change from baseline Median [4]: −36.11% | UAS7 Change from baseline Mean (SD) [5]: −24.00 (NC) | UAS7 Change from baseline Median [5]: −24.00 | UAS7 Mean (SD) [5]: 17.00 (NC) | UAS7 Median [5]: 17.00 | UAS7 Percent change from baseline Mean (SD) [5]: −58.54 (NC) % | UAS7 Percent change from baseline Median [5]: −58.54% | Non-responder, UAS7 reduction from baseline of 10 points or more [6]: 22 (59.5) n (%) | OR for rilzabrutinib vs. placebo, UAS7 reduction of 10 points or more [6]: 1.096 | RRD (%) for rilzabrutinib vs. placebo, UAS7 reduction of 10 points or more [6]: 2.2 % | Responder, UAS7 reduction from baseline of 10 points or more [6]: 15 (40.5) n (%) | Non-responder, UAS7 reduction from baseline of 10 points or more [7]: 16 (39.0) n (%) | OR for rilzabrutinib vs. placebo, UAS7 reduction of 10 points or more [7]: 2.334 | RRD (%) for rilzabrutinib vs. placebo, UAS7 reduction of 10 points or more [7]: 18.7 % | Responder, UAS7 reduction from baseline of 10 points or more [7]: 25 (61.0) n (%) | UAS7 Change from baseline Median [8]: −15.00 | UAS7 Mean (SD) [8]: 13.54 (9.34) | UAS7 Median [8]: 14.00 | UAS7 Percent change from baseline Mean (SD) [8]: −54.22 (30.59) % | UAS7 Percent change from baseline Median [8]: −52.50% | UAS7 Change from baseline Mean (SD) [9]: −20.86 (14.89) | UAS7 Change from baseline Median [9]: −16.00 | UAS7 Mean (SD) [9]: 12.17 (10.21) | UAS7 Percent change from baseline Mean (SD) [9]: −58.95 (28.44) % | UAS7 Percent change from baseline Median [9]: −51.29% | Non-responder, UAS7 reduction from baseline of 10 points or more [10]: 13 (37.1) n (%) | OR for rilzabrutinib vs. placebo, UAS7 reduction of 10 points or more [10]: 2.765 | RRD (%) for rilzabrutinib vs. placebo, UAS7 reduction of 10 points or more [10]: 22.3 % | Responder, UAS7 reduction from baseline of 10 points or more [10]: 22 (62.9) n (%) | Non-responder, UAS7 reduction from baseline of 10 points or more [11]: 17 (41.5) n (%) | OR for rilzabrutinib vs. placebo, UAS7 reduction of 10 points or more [11]: 1.985 | RRD (%) for rilzabrutinib vs. placebo, UAS7 reduction of 10 points or more [11]: 17.5 % | Responder, UAS7 reduction from baseline of 10 points or more [11]: 24 (58.5) n (%) | UAS7 Change from baseline Mean (SD) [12]: −15.64 (11.76) | UAS7 Change from baseline Median [12]: −16.00 | UAS7 Mean (SD) [12]: 13.98 (13.06) | UAS7 Median [12]: 10.00 | UAS7 Percent change from baseline Mean (SD) [12]: −54.37 (38.23) % | UAS7 Percent change from baseline Median [12]: −64.29% | UAS7 Change from baseline Mean (SD) [13]: −21.00 (19.13) | UAS7 Change from baseline Median [13]: −26.00 | UAS7 Mean (SD) [13]: 11.00 (15.67) | UAS7 Median [13]: 1.00 | UAS7 Percent change from baseline Mean (SD) [13]: −61.16 (51.62) % | UAS7 Percent change from baseline Median [13]: −96.30% | Non-responder, UAS7 reduction from baseline of 10 points or more [14]: 14 (40.0) n (%) | OR for rilzabrutinib vs. placebo, UAS7 reduction of 10 points or more [14]: 2.484
